In patent publication US9920010B2, “CXCR7 receptor modulators” (IDORSIA PHARMACEUTICALS LTD, priority 2013, dated 2018) one finds EC50 data, which are given here for 32 compounds.

Counter-ions that a name gives are not always drawn.

The target in the test is T1, CXCR7 (Homo sapiens, UniProt P25106).
T1 construct: host or cells: CHO-K1 (PathHunter CHO-K1 CXCR7 b-arrestin cell line, stably transfected)
T1 sequence (P25106 whole entry): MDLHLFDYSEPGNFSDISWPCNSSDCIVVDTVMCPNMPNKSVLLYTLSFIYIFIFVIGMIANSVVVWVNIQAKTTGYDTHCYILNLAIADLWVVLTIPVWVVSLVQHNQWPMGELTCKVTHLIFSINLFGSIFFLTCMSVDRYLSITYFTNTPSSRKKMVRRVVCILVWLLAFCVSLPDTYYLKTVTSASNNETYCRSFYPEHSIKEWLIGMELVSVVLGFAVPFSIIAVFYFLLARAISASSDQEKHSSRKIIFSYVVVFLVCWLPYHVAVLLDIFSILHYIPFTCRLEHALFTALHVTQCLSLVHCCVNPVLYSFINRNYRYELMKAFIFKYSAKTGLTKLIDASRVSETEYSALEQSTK
T1 sequence (P32121 whole entry partner): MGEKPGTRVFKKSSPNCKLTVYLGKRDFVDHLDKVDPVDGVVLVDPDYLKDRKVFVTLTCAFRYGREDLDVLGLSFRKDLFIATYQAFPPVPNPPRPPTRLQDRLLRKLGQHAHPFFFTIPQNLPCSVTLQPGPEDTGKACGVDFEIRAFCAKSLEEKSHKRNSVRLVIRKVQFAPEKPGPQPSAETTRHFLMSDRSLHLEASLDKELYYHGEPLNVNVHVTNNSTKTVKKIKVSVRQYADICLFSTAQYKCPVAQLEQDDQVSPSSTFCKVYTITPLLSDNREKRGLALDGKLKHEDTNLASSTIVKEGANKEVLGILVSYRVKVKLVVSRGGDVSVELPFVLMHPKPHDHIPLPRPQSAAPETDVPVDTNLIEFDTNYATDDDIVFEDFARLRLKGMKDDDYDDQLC
Kind of test: PathHunter CHO-K1 CXCR7 b-arrestin recruitment assay (CXCR7 agonistic activity). Type of test: cell-based. As to conditions: PathHunter CHO-K1 CXCR7 b-arrestin cell line. Summed up:
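Stable CHO-K1 line with C-terminally ProLink-tagged CXCR7 and β-arrestin 2–EA fusion; β-arrestin recruitment restores β-gal activity, read by chemiluminescence after 1 h RT detection. Cells seeded 24 h, starved in OPTIMEM 3–4 h, exposed to compounds 90 min at 37 °C in HBSS/HEPES/BSA. Geometric-mean EC50 from repeated measurements.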
A general note: Recruitment of arrestin is a read-out of receptor activation apart from second messengers.
Consider `COCCN1CCc2c(CCC(=O)N(CCC(C)(C)C)Cc3ncccc3C)cccc2C1` [Example 338, N-(3,3-Dimethyl-butyl)-3-[2-(2-methoxy-ethyl)-1,2,3,4-tetrahydro-isoquinolin-5-yl]-N-(3-methyl-pyridin-2-ylmethyl)-propionamide], for which the EC50 (commonly the concentration needed to bring the measured effect to its halfway point) was 279 nM. For the compound `CCCN1CCc2cccc(NCC(=O)N(CCN(C)C)Cc3ccccc3C(F)(F)F)c2C1` [compound 556, N-(2-Dimethylamino-ethyl)-2-(2-propyl-1,2,3,4-tetrahydro-isoquinolin-8-ylamino)-N-(2-trifluoromethyl-benzyl)-acetamide], a half-maximal effect (EC50) was put at 8 nM. Turning to `CNCCN(Cc1ncccc1C(F)(F)F)C(=O)CNc1cccc2c1CCN(C(=O)COC)C2` [compound 413, 2-[2-(2-Methoxy-acetyl)-1,2,3,4-tetrahydro-isoquinolin-5-ylamino]-N-(2-methylamino-ethyl)-N-(3-trifluoromethyl-pyridin-2-ylmethyl)-acetamide], the EC50 is 8 nM.

As for `NC(=O)CCN(Cc1ccccc1)C(=O)/C=C/c1cccc2c1CCN(CC1CC1)C2` [Example 140, (E)-N-Benzyl-N-(2-carbamoyl-ethyl)-3-(2-cyclopropylmethyl-1,2,3,4-tetrahydro-isoquinolin-5-yl)-acrylamide dihydrochloride], it took 54 nM to reach a half-maximal effect (EC50). On to `CN(C)CCN(Cc1ccccc1)C(=O)COc1cccc2c1CCN(C)C2` [compound 164], for which the 50% effective concentration (EC50) is 84 nM.

Turning to `CN(C)CCN(Cc1ncccc1F)C(=O)CNc1cccc2c1CCN(CC1CC1)C2` [Example 271, 2-(2-Cyclopropylmethyl-1,2,3,4-tetrahydro-isoquinolin-5-ylamino)-N-(2-dimethylamino-ethyl)-N-(3-fluoro-pyridin-2-ylmethyl)-acetamide], the concentration giving a half-maximal response (EC50) stood at 10 nM. Compound `CCNC(=O)N1CCc2c(cccc2NCC(=O)N(CCNC)Cc2ccccc2C(F)(F)F)C1` [compound 403, 5-({[(2-Methylamino-ethyl)-(2-trifluoromethyl-benzyl)-carbamoyl]-methyl}-amino)-3,4-dihydro-1H-isoquinoline-2-carboxylic acid ethylamide] gave a half-maximal effective concentration (EC50) of 24 nM. The compound `CCN1Cc2cccc(NCC(=O)N(CCN3CCCC3)Cc3ccccc3C(F)(F)F)c2CC1=O` [Example 311, 2-(2-Ethyl-3-oxo-1,2,3,4-tetrahydro-isoquinolin-5-ylamino)-N-(2-pyrrolidin-1-yl-ethyl)-N-(2-trifluoromethyl-benzyl)-acetamide] returned an EC50 of 24 nM. On to `CCN1CCc2cccc(NCC(=O)N(CCN(C)C)Cc3cccc(C(F)(F)F)c3)c2C1` [compound 505, N-(2-Dimethylamino-ethyl)-2-(2-ethyl-1,2,3,4-tetrahydro-isoquinolin-8-ylamino)-N-(3-trifluoromethyl-benzyl)-acetamide], for which it took 42 nM to reach a half-maximal effect (EC50). Consider `CCC(=O)N1CCc2c(cccc2NCC(=O)N(CCc2ccccc2)CCN(C)C)C1` [Example 17, N-(2-Dimethylamino-ethyl)-N-phenethyl-2-(2-propionyl-1,2,3,4-tetrahydro-isoquinolin-5-ylamino)-acetamide], for which the 50% effective concentration (EC50) is 135 nM.

Turning to `CN(C)CCN(Cc1ccc(Cl)cn1)C(=O)CNc1cccc2c1CCN(CC1CC1)C2` [Example 261, N-(5-Chloro-pyridin-2-ylmethyl)-2-(2-cyclopropylmethyl-1,2,3,4-tetrahydro-isoquinolin-5-ylamino)-N-(2-dimethylamino-ethyl)-acetamide], the EC50 stood at 47 nM. For `CN(C)CCN(Cc1ccccc1)C(=O)CNc1cccc2c1CCN(C(=O)OCC(C)(C)C)C2` [compound 127], the EC50 was determined as 395 nM. The compound `CC(C)CN1Cc2cccc(NCC(=O)N(CCN3CCCC3)Cc3ccccc3C(F)(F)F)c2CC1=O` [Example 314, 2-(2-Isobutyl-3-oxo-1,2,3,4-tetrahydro-isoquinolin-5-ylamino)-N-(2-pyrrolidin-1-yl-ethyl)-N-(2-trifluoromethyl-benzyl)-acetamide] had an EC50 of 23 nM. With `CC(C)CN1Cc2cccc(NCC(=O)N(CCN(C)C)Cc3ncccc3C(F)(F)F)c2CC1=O` [Example 313, N-(2-Dimethylamino-ethyl)-2-(2-isobutyl-3-oxo-1,2,3,4-tetrahydro-isoquinolin-5-ylamino)-N-(3-trifluoromethyl-pyridin-2-ylmethyl)-acetamide], a half-maximal effect (EC50) was put at 31 nM. `CN(C)CCN(Cc1ccncc1Br)C(=O)CNc1cccc2c1CCN(CC1CC1)C2` [Example 239, N-(3-Bromo-pyridin-4-ylmethyl)-2-(2-cyclopropylmethyl-1,2,3,4-tetrahydro-isoquinolin-5-ylamino)-N-(2-dimethylamino-ethyl)-acetamide] yielded an EC50 of 23 nM.

`CCN1CCc2cccc(NCC(=O)N(Cc3ccccc3)C3CCNC3)c2C1` (racemic) [compound 378]: the EC50 was found to be 321 nM. Compound `CN1CCC(N(Cc2ccccc2C(F)(F)F)C(=O)/C=C/c2cccc3c2CCN(C(=O)OC(C)(C)C)C3)CC1` [Example 96, 5-{(E)-2-[(1-Methyl-piperidin-4-yl)-(2-trifluoromethyl-benzyl)-carbamoyl]-vinyl}-3,4-dihydro-1H-isoquinoline-2-carboxylic acid tert-butyl ester] displayed an EC50 of 249 nM.

The compound `CN(C)CCN(Cc1ccccc1Cl)C(=O)CCc1cccc2c1CCN(CC1CC1)C2` [compound 156, N-(2-Chloro-benzyl)-3-(2-cyclopropylmethyl-1,2,3,4-tetrahydro-isoquinolin-5-yl)-N-(2-dimethylamino-ethyl)-propionamide] returned an EC50 of 1 nM.

In turn, `CN(C)CCN(Cc1ccccc1Cl)C(=O)CNc1cccc2c1C(C)(C)CN(CC1CC1)C2` [Example 577, N-(2-Chloro-benzyl)-2-(2-cyclopropylmethyl-4,4-dimethyl-1,2,3,4-tetrahydro-isoquinolin-5-ylamino)-N-(2-dimethylamino-ethyl)-acetamide] displayed a concentration for a half-maximal effect (EC50) of 0.9 nM. Under `CN(CCN(Cc1ncccc1C(F)(F)F)C(=O)CNc1cccc2c1CCN(CC1CC1)C2)CC(F)(F)F` [Example 280, 2-(2-Cyclopropylmethyl-1,2,3,4-tetrahydro-isoquinolin-5-ylamino)-N-{2-[methyl-(2,2,2-trifluoro-ethyl)-amino]-ethyl}-N-(3-trifluoromethyl-pyridin-2-ylmethyl)-acetamide] stands 28 nM; under `CNCCN(Cc1ccccc1C(F)(F)F)C(=O)CNc1cccc2c1CCN(C(=O)NC1CCCCC1)C2` [compound 407], 326 nM; under `CNCCN(Cc1ccccc1C(F)(F)F)C(=O)CNc1cccc2c1CCN(C(=O)C(C)C)C2` [compound 387, 2-(2-Isobutyryl-1,2,3,4-tetrahydro-isoquinolin-5-ylamino)-N-(2-methylamino-ethyl)-N-(2-trifluoromethyl-benzyl)-acetamide], 12 nM.

The compound `COCCN1CCc2c(CCC(=O)N(CCN(C)C(=O)OC(C)(C)C)Cc3ccccc3C(F)(F)F)cccc2C1` [Example 337, {2-[{3-[2-(2-Methoxy-ethyl)-1,2,3,4-tetrahydro-isoquinolin-5-yl]-propionyl}-(2-trifluoromethyl-benzyl)-amino]-ethyl}-methyl-carbamic acid tert-butyl ester] displayed an EC50 of 429 nM. The compound `O=C(/C=C/c1cccc2c1CCN(CC1CC1)C2)N(CCN1CCC(F)(F)CC1)Cc1ncccc1Cl` [Example 334, (E)-N-(3-Chloro-pyridin-2-ylmethyl)-3-(2-cyclopropylmethyl-1,2,3,4-tetrahydro-isoquinolin-5-yl)-N-[2-(4,4-difluoro-piperidin-1-yl)-ethyl]-acrylamide] showed an EC50 of 13 nM. As for `CN(C)CCN(Cc1ccncc1)C(=O)CNc1cccc2c1CCN(CC1CC1)C2` [Example 268, 2-(2-Cyclopropylmethyl-1,2,3,4-tetrahydro-isoquinolin-5-ylamino)-N-(2-dimethylamino-ethyl)-N-pyridin-4-ylmethyl-acetamide], the EC50 was 350 nM.

For `CN(C)CCN(Cc1ccccc1C(F)(F)F)C(=O)CNc1cccc2c1C(C)(C)CN(C(=O)OC(C)(C)C)C2` [Example 90, 5-({[(2-Dimethylamino-ethyl)-(2-trifluoromethyl-benzyl)-carbamoyl]-methyl}-amino)-4,4-dimethyl-3,4-dihydro-1H-isoquinoline-2-carboxylic acid tert-butyl ester], the EC50 came to 32 nM. On to `Cc1cccc(CN(C(=O)/C=C/c2cccc3c2CCN(CC2CC2)C3)C2CC2)c1C` [compound 141], for which the half-maximal effective concentration (EC50) came out at 98 nM. Then `CN(C)CCN(Cc1ncccc1Br)C(=O)CNc1cccc2c1CCN(CC1CC1)C2` [Example 236, N-(3-Bromo-pyridin-2-ylmethyl)-2-(2-cyclopropylmethyl-1,2,3,4-tetrahydro-isoquinolin-5-ylamino)-N-(2-dimethylamino-ethyl)-acetamide], with 3 nM. For the compound `CN(C)CCN(Cc1ccccc1C(F)(F)F)C(=O)CNc1cccc2c1CN(CC1CC1)CC2` [compound 475], the EC50 came to 121 nM. Under `CN(C)CCN(Cc1ccccc1C(F)(F)F)C(=O)CNc1cccc2c1CN(C)CC2` [compound 564, N-(2-Dimethylamino-ethyl)-2-(2-methyl-1,2,3,4-tetrahydro-isoquinolin-8-ylamino)-N-(2-trifluoromethyl-benzyl)-acetamide] stands 17 nM; under `CC(Oc1cccc2c1CCN(CC1CC1)C2)C(=O)N(CCN(C)C)Cc1ccccc1C(F)(F)F` (racemic) [Example 350, rac-2-(2-Cyclopropylmethyl-1,2,3,4-tetrahydro-isoquinolin-5-yloxy)-N-(2-dimethylamino-ethyl)-N-(2-trifluoromethyl-benzyl)-propionamide], 32 nM; under `CCC(=O)N1CCc2c(cccc2NCC(=O)N(CCN(C)C)Cc2ccc(Cl)cc2)C1` [Example 19, N-(4-Chloro-benzyl)-N-(2-dimethylamino-ethyl)-2-(2-propionyl-1,2,3,4-tetrahydro-isoquinolin-5-ylamino)-acetamide], 102 nM.
